Measured values taken from patent publication US7781565B2 (priority 2006, dated 2010).

tested on: NCI-60 cell lines; assay type: cell-based, human

Substance	Cell Line with which the peptide (and its tripeptide motif) is associated	Cell Line (NCI-60 cell line the peptide and its motif are associated with)	Cell Line (NCI-60 cell line the peptide is associated with)	Cell Line the peptide is associated with (peptide recovered from phage library selection on this NCI-60 cell line)
FAGGSTD	HL-60-Leukemia			
AFKTGGS		M14 Melanoma		
PATRGSV	Hop-92-Lung			
YRVSSGS			SNB-75 CNS	
RWRSGRV			HT-29 Colon	
GAVRARL	SR Leukemia			
EVIGSGI	A549-Lung			
AVWGGLG	H226-Lung			
QGSSNSV		IGROV1 Ovarian		
LRSWLLF			HT-29 Colon	
VRLRAVF				TK-10 Renal
RAVWRAS		SK-MEL-2 Melanoma		
RVGTLRV		SK-OV-3-3 Ovarian		
RFSGGLQ		SK-MEL-28 Melanoma		
TEGTRGV				RXF393 Renal
GRAGGNG		M14 Melanoma		
GSSRTFR	A549-Lung			
GGGRSGV	H226-Lung			
GAYGGLL			SF-268 CNS	
AASLRGT		UACC62 Melanoma		
SGGAVHF	SR Leukemia			
PKAGRGS	Hop-62-Lung			
RRVSCDL	Hop-62-Lung			
HQAGGVT		UACC62 Melanoma		

Substance	Cell Line with which the peptide (and its tripeptide motif) is associated	Cell Line (NCI-60 cell line the peptide and its motif are associated with)	Cell Line (NCI-60 cell line the peptide is associated with)	Cell Line the peptide is associated with (peptide recovered from phage library selection on this NCI-60 cell line)
EVLVSGD	Molt-4-Leukemia			
GLVARVR		SK-MEL-28 Melanoma		
DNDGARG			COLO-205-Colon	
RLSWTVL		PC3 Prostate		
GAGSFSS		SK-MEL-2 Melanoma		
LAQGRLA			HT-29 Colon	
GGSSLDA			HCT-116 Colon	
YLRSAGM		PC3 Prostate		
GGFLLVS		SK-OV-3-3 Ovarian		
GRSSGME			HT-29 Colon	
SYFRAGR	H23-Lung			
ATIPGGS			LOX-IMVI Melanoma	
SAGGWCA			LOX-IMVI Melanoma	
FPGSAGS				ACHN Renal
WRLSREG		SK-MEL-2 Melanoma		
GGRSQEG				UO31 Renal
RSSSSTR			SNB-75 CNS	
PGLGYAL				T-47D Breast
SALRVGL				BT-549 Breast
SLVSERA				HS 578 T Breast
RLSALTD			HT-29 Colon	
GGASLTQ			SF-295 CNS	
LVRLVSL		IGROV1 Ovarian		
LLRGLRP				TK-10 Renal

Substance	Cell Line with which the peptide (and its tripeptide motif) is associated	Cell Line (NCI-60 cell line the peptide and its motif are associated with)	Cell Line (NCI-60 cell line the peptide is associated with)	Cell Line the peptide is associated with (peptide recovered from phage library selection on this NCI-60 cell line)
RGSAQNF	RPMI-8226-Leukemia			
SGARLRS				T-47D Breast
LGASLLV				RXF393 Renal
TRLSFRH		SK-OV-3-3 Ovarian		
ARVSGRV	H23-Lung			
MGSAVSL	Hop-92-Lung			
SHCGPSN			SF-295 CNS	
EMGSSRG			HT-29 Colon	
GDATLVS		786-0 Renal		
GKGMGLG		OVCAR-5 Ovarian		
DLGSVQH			HT-29 Colon	
SMRGVLS				BT-549 Breast
AGRFGAR		OVCAR-8 Ovarian		
RFSSRAV		IGROV1 Ovarian		
RDLRVHL		UACC62 Melanoma		
AECCGGL				ACHN Renal
GSGGSVH	Hop-92-Lung			
ARYSLRS		786-0 Renal		
LWGLGWL			HCC-2998-Colon	
EHPAGGM	A549-Lung			
SHTAGGG		PC3 Prostate		
RGSFGLG				T-47D Breast
SLRGSEG	Hop-92-Lung			
LSERRGV			SF-295 CNS	

Substance	Cell Line with which the peptide (and its tripeptide motif) is associated	Cell Line (NCI-60 cell line the peptide and its motif are associated with)	Cell Line (NCI-60 cell line the peptide is associated with)	Cell Line the peptide is associated with (peptide recovered from phage library selection on this NCI-60 cell line)
GWTMAAS				TK-10 Renal
LIGGRNA			HCT-116 Colon	
SGSVNRG	RPMI-8226-Leukemia			
SKYRLRS	RPMI-8226-Leukemia			
FSNARGY		DU-145 Prostate		
RSGSSVY	H23-Lung			
DVWVAVS		OVCAR-4 Ovarian		
VPLRSSA			HT-29 Colon	
IYGGLVI		SK-MEL-5 Melanoma		
PRLSWVL			HT-29 Colon	
KSGLRPA	EKVX-Lung			
VGLRDWG			SW620-Colon	
VTRIRVS		UACC 257 Melanoma		
GFVAGRT		SK-MEL-5 Melanoma		
RSSIAPS	Molt-4-Leukemia			
TICLGLG				CAIK-1 Renal
RRGSGGL	H23-Lung			
TWGRLGL				ACHN Renal
VRSSGVL		SK-OV-3-3 Ovarian		
GDSRRGV	Hop-62-Lung			
IGGREIT	H23-Lung			
RMGFGLR			LOX-IMVI Melanoma	
VARGQMQ	H226-Lung			
PRASDIL				BT-549 Breast

Substance	Cell Line with which the peptide (and its tripeptide motif) is associated	Cell Line (NCI-60 cell line the peptide and its motif are associated with)	Cell Line (NCI-60 cell line the peptide is associated with)	Cell Line the peptide is associated with (peptide recovered from phage library selection on this NCI-60 cell line)
WDGSSVS				SN12C Renal
SSTRGVY			HT-29 Colon	
FGLGSSR	Hop-62-Lung			
HPSMGGR	Hop-62-Lung			
SLTRAVR	Hop-92-Lung			
FDRGSLT			SF-295 CNS	
SRFRVSI	CCRF-CEM Leukemia			
RVVGAVL				ACHN Renal
GAGSSVW				CAIK-1 Renal
LYGVRYG	RPMI-8226-Leukemia			
TAGSSRL	H322-Lung			
RVGSVQW			KM-12C Colon	
LLRPGTV			HCC-2998-Colon	
PLRSFDS	H23-Lung			
PRASSTG				SN12C Renal
LRVSNPR		UACC62 Melanoma		
FEDLLSL			MALME-3M Melanoma	
REEFAGR	SR Leukemia			
LVGRVKL			HT-29 Colon	
HSRAVAP	SR Leukemia			
